Reference: ChEMBL document CHEMBL5463729, “Data for DCP probe BAY 1753011” (2023)

Key:
[1] = molecular target: Mitogen-activated protein kinase kinase kinase 21 (Homo sapiens) (UniProt Q5TCX8); test: Inhibition of MLK4(h) at 10.0 µM in the Eurofins Kinase panel; settings: Compound concentration 10.0 uM
[2] = molecular target: Serine/threonine-protein kinase 32C (Homo sapiens) (UniProt Q86UX6); test: Inhibition of STK32C(h) at 10.0 µM in the Eurofins Kinase panel; settings: Compound concentration 10.0 uM
[3] = molecular target: Casein kinase I isoform epsilon (Homo sapiens) (UniProt P49674); test: Inhibition of CK1epsilon(h) at 10.0 µM in the Eurofins Kinase panel; settings: Compound concentration 10.0 uM
[4] = molecular target: Tyrosine-protein kinase ZAP-70 (Homo sapiens) (UniProt P43403); test: Inhibition of ZAP-70(h) at 10.0 µM in the Eurofins Kinase panel; settings: Compound concentration 10.0 uM
[5] = molecular target: Serine/threonine-protein kinase TAO2 (Homo sapiens) (UniProt Q9UL54); test: Inhibition of TAO2(h) at 10.0 µM in the Eurofins Kinase panel; settings: Compound concentration 10.0 uM
[6] = molecular target: T1, Alpha-2A adrenergic receptor (Homo sapiens) (UniProt P08913); settings: Compound concentration 10.0 uM
T1 sequence (whole entry): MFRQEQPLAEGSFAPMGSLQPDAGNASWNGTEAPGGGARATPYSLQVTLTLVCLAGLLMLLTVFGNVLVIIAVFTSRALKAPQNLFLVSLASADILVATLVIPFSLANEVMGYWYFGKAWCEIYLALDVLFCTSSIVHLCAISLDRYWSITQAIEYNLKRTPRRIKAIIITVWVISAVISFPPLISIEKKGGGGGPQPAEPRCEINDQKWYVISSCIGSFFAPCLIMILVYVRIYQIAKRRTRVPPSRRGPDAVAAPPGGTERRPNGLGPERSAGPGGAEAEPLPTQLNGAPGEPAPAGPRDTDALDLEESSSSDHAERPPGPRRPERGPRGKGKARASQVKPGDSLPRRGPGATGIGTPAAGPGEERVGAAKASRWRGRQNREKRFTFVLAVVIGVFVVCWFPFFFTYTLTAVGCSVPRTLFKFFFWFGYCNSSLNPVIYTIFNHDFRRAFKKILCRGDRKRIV

[7] = molecular target: Serine/threonine-protein kinase Nek9 (Homo sapiens) (UniProt Q8TD19); test: Inhibition of NEK9(h) at 10.0 µM in the Eurofins Kinase panel; settings: Compound concentration 10.0 uM
[8] = molecular target: Serine/threonine-protein kinase 38 (Homo sapiens) (UniProt Q15208); test: Inhibition of NDR1(h) at 10.0 µM in the Eurofins Kinase panel; settings: Compound concentration 10.0 uM
[9] = molecular target: Interleukin-1 receptor-associated kinase 4 (Homo sapiens) (UniProt Q9NWZ3); test: Inhibition of IRAK4(h) at 10.0 µM in the Eurofins Kinase panel; settings: Compound concentration 10.0 uM
[10] = molecular target: Mitogen-activated protein kinase kinase kinase kinase 4 (Homo sapiens) (UniProt O95819); test: Inhibition of MAP4K4(h) at 10.0 µM in the Eurofins Kinase panel; settings: Compound concentration 10.0 uM
[11] = molecular target: Serine/threonine-protein kinase MRCK alpha (Homo sapiens) (UniProt Q5VT25); test: Inhibition of MRCKalpha(h) at 10.0 µM in the Eurofins Kinase panel; settings: Compound concentration 10.0 uM
Sequence of Serine/threonine-protein kinase MRCK alpha (Homo sapiens) (Q5VT25 whole entry): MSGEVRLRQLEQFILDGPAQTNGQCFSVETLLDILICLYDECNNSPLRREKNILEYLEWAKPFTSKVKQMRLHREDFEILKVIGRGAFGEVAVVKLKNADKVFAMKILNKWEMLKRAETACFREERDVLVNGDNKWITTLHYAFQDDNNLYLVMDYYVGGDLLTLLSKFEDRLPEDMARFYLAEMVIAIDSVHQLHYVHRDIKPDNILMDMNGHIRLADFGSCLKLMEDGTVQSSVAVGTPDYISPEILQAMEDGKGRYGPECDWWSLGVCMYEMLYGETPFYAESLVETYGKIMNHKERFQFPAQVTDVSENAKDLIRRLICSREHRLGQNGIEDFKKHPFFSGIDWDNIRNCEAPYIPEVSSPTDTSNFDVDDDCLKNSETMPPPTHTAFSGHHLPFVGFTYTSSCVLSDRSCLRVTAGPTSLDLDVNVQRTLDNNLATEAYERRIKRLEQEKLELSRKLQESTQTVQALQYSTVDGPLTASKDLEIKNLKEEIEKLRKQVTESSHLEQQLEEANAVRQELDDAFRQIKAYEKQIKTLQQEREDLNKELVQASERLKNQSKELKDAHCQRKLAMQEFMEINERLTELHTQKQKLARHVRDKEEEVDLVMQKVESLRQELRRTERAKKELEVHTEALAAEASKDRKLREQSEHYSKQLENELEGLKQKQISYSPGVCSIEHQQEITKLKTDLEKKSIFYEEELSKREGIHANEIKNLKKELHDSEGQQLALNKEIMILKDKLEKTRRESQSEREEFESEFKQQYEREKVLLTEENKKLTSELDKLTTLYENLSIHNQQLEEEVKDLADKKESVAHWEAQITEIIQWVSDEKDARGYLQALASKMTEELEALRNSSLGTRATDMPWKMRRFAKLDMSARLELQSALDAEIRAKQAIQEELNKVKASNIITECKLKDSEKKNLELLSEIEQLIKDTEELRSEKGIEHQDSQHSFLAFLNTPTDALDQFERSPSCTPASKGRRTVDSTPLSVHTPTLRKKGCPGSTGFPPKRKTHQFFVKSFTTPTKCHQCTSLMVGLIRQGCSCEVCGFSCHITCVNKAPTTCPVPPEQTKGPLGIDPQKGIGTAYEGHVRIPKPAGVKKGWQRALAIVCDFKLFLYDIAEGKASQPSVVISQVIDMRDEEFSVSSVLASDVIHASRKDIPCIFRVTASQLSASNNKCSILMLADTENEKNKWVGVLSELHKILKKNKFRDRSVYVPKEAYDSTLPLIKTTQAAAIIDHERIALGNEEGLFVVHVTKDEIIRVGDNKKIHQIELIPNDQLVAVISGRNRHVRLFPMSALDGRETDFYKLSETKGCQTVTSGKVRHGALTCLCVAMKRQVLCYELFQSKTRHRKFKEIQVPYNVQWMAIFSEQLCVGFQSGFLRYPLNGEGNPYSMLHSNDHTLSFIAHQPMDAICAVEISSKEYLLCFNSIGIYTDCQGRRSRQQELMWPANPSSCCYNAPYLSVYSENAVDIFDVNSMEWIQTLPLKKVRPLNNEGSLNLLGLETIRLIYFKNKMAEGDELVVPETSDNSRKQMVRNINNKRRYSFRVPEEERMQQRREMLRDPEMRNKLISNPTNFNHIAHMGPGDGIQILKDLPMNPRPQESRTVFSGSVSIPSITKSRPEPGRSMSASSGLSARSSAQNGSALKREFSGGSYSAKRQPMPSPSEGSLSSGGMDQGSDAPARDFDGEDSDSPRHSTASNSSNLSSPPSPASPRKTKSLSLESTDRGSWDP

[12] = molecular target: Ephrin type-A receptor 1 (Homo sapiens) (UniProt P21709); test: Inhibition of EphA1(h) at 10.0 µM in the Eurofins Kinase panel; settings: Compound concentration 10.0 uM
[13] = molecular target: Death-associated protein kinase 1 (Homo sapiens) (UniProt P53355); test: Inhibition of DAPK1(h) at 10.0 µM in the Eurofins Kinase panel; settings: Compound concentration 10.0 uM
[14] = molecular target: Serine/threonine-protein kinase PAK 2 (Homo sapiens) (UniProt Q13177); test: Inhibition of PAK2(h) at 10.0 µM in the Eurofins Kinase panel; settings: Compound concentration 10.0 uM
[15] = molecular target: Cyclin-dependent kinase 2/cyclin E1 (Homo sapiens) (UniProt P24864+P24941); test: Inhibition of CDK2/cyclinE(h) at 10.0 µM in the Eurofins Kinase panel; type: protein-complex assay; settings: Compound concentration 10.0 uM
[16] = molecular target: Epithelial discoidin domain-containing receptor 1 (Homo sapiens) (UniProt Q08345); test: Inhibition of DDR1(h) at 10.0 µM in the Eurofins Kinase panel; settings: Compound concentration 10.0 uM
[17] = molecular target: Endothelin-1 receptor (Homo sapiens) (UniProt P25101); settings: Compound concentration 10.0 uM
[18] = molecular target: Ephrin type-A receptor 4 (Homo sapiens) (UniProt P54764); test: Inhibition of EphA4(h) at 10.0 µM in the Eurofins Kinase panel; settings: Compound concentration 10.0 uM
Vasopressin V1b receptor = Vasopressin V1b receptor (Homo sapiens, UniProt P47901); test: Radiometric AVPR1B binding assay (Eurofins #287560)
Sequence of Vasopressin V1b receptor (P47901 whole entry): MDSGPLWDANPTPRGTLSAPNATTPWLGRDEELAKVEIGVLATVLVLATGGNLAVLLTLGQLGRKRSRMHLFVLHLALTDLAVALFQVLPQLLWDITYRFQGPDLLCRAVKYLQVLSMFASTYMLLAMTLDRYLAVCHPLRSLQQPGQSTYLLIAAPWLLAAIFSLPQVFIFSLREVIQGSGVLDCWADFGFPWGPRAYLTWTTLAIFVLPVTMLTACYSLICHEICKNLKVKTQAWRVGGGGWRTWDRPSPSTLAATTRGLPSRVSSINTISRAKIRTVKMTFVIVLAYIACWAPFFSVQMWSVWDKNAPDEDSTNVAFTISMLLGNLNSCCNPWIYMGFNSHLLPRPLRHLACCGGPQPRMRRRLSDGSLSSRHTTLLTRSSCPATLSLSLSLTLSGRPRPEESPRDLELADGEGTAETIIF

[19] = molecular target: Serine/threonine-protein kinase pim-2 (Homo sapiens) (UniProt Q9P1W9); test: Inhibition of Pim-2(h) at 10.0 µM in the Eurofins Kinase panel; settings: Compound concentration 10.0 uM
[20] = molecular target: Fibroblast growth factor receptor 2 (Homo sapiens) (UniProt P21802); test: Inhibition of FGFR2(h) at 10.0 µM in the Eurofins Kinase panel; settings: Compound concentration 10.0 uM
[21] = molecular target: Serine/threonine-protein kinase D2 (Homo sapiens) (UniProt Q9BZL6); test: Inhibition of PKD2(h) at 10.0 µM in the Eurofins Kinase panel; settings: Compound concentration 10.0 uM
Sequence of Serine/threonine-protein kinase D2 (Homo sapiens) (Q9BZL6 whole entry): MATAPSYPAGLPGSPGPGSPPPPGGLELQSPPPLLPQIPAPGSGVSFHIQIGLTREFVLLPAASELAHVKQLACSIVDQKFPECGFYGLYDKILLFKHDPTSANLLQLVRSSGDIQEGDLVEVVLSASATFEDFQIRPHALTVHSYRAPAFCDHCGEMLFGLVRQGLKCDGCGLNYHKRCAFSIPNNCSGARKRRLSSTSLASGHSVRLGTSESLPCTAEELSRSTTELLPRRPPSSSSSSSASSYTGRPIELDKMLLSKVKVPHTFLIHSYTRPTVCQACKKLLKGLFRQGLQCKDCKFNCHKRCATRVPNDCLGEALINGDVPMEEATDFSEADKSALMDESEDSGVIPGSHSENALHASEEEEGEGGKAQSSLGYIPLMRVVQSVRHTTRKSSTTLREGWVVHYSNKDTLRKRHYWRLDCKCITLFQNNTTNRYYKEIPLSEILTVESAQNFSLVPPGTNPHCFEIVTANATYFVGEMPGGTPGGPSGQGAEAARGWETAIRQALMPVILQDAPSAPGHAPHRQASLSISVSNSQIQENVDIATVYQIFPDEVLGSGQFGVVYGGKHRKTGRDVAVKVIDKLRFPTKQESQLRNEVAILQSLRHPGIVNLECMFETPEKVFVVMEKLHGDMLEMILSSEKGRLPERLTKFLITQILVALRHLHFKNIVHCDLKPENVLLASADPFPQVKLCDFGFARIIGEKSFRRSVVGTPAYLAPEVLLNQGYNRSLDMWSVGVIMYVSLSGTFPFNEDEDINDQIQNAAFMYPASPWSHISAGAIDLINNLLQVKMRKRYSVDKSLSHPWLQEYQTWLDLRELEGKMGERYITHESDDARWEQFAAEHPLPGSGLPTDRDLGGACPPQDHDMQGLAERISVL

[22] = molecular target: Cyclin-dependent kinase 1/cyclin B1 (Homo sapiens) (UniProt P06493+P14635); test: Inhibition of CDK1/cyclinB(h) at 10.0 µM in the Eurofins Kinase panel; type: protein-complex assay; settings: Compound concentration 10.0 uM
[23] = molecular target: RAC-gamma serine/threonine-protein kinase (Homo sapiens) (UniProt Q9Y243); test: Inhibition of PKBgamma(h) at 10.0 µM in the Eurofins Kinase panel; settings: Compound concentration 10.0 uM
[24] = molecular target: Serine/threonine-protein kinase N1 (Homo sapiens) (UniProt Q16512); test: Inhibition of PRK1(h) at 10.0 µM in the Eurofins Kinase panel; settings: Compound concentration 10.0 uM
[25] = molecular target: Serine/threonine-protein kinase DCLK2 (Homo sapiens) (UniProt Q8N568); test: Inhibition of DCAMKL2(h) at 10.0 µM in the Eurofins Kinase panel; settings: Compound concentration 10.0 uM
Sequence of Serine/threonine-protein kinase DCLK2 (Homo sapiens) (Q8N568 whole entry): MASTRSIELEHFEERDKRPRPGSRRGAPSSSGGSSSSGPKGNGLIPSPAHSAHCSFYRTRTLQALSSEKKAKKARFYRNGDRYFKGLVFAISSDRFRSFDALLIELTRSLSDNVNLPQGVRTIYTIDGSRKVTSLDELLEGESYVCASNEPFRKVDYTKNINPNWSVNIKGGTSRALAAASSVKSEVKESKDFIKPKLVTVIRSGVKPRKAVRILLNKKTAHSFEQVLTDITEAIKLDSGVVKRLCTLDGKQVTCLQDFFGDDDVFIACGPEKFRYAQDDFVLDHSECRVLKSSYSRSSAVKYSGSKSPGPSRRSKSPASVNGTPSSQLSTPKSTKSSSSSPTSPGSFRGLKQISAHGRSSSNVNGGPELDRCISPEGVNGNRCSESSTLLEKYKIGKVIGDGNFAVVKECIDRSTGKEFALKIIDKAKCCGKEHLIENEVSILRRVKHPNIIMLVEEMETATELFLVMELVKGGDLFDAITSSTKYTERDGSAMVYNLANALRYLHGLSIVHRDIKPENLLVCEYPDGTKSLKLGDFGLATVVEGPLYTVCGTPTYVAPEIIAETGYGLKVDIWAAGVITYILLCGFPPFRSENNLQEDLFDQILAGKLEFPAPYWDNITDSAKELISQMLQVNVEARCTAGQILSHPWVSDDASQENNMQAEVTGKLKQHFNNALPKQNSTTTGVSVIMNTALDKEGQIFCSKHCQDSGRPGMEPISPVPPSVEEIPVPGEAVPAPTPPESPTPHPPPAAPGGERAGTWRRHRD

[26] = molecular target: Tyrosine-protein kinase Tec (Homo sapiens) (UniProt P42680); test: Inhibition of Tec(h) activated at 10.0 µM in the Eurofins Kinase panel; settings: Compound concentration 10.0 uM
Sequence of Tyrosine-protein kinase Tec (Homo sapiens) (P42680 whole entry): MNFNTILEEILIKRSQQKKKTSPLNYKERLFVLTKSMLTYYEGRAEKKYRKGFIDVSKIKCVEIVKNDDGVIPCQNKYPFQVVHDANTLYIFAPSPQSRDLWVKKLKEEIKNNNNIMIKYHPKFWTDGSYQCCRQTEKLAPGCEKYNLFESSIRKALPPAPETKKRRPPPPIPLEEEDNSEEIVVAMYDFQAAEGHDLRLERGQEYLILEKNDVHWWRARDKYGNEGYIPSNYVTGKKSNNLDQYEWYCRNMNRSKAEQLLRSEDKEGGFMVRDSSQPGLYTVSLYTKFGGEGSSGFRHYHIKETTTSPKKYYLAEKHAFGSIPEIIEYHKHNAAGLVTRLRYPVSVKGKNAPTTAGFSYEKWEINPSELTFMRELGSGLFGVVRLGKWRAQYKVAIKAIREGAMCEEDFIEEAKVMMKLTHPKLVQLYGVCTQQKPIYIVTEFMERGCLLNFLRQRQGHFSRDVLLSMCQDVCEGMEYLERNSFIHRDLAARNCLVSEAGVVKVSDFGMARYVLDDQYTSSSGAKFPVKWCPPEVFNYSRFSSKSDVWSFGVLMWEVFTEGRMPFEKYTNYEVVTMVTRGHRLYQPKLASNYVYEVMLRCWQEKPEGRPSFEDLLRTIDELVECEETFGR

[27] = molecular target: Tyrosine-protein kinase HCK (Homo sapiens) (UniProt P08631); test: Inhibition of Hck(h) activated at 10.0 µM in the Eurofins Kinase panel; settings: Compound concentration 10.0 uM
Sequence of Tyrosine-protein kinase HCK (Homo sapiens) (P08631 2-526 limits assumed): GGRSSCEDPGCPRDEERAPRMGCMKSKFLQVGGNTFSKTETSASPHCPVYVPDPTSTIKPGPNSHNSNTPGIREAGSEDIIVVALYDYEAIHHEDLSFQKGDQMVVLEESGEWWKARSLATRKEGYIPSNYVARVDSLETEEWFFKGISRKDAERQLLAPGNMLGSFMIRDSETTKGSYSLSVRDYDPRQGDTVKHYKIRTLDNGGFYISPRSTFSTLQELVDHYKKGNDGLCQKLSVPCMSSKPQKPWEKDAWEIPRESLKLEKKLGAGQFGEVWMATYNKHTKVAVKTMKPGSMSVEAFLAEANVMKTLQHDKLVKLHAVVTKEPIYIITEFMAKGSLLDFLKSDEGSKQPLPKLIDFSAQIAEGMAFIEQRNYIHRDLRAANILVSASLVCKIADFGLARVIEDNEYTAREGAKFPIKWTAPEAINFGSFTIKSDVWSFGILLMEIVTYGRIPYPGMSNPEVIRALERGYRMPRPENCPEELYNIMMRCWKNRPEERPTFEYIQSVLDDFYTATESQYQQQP

[28] = molecular target: Tau-tubulin kinase 2 (Homo sapiens) (UniProt Q6IQ55); test: Inhibition of TTBK2(h) at 10.0 µM in the Eurofins Kinase panel; settings: Compound concentration 10.0 uM
[29] = molecular target: Delta-type opioid receptor (Homo sapiens) (UniProt P41143); settings: Compound concentration 10.0 uM
[30] = molecular target: Serine/threonine-protein kinase PRP4 homolog (Homo sapiens) (UniProt Q13523); test: Inhibition of PRP4(h) at 10.0 µM in the Eurofins Kinase panel; settings: Compound concentration 10.0 uM
[31] = molecular target: Phosphatidylinositol 4-phosphate 3-kinase C2 domain-containing subunit alpha (Homo sapiens) (UniProt O00443); test: Inhibition of PI3KC2a(h) at 10.0 µM in the Eurofins Kinase panel; settings: Compound concentration 10.0 uM
[32] = molecular target: Calcium/calmodulin-dependent protein kinase type IV (Homo sapiens) (UniProt Q16566); test: Inhibition of CaMKIV(h) at 10.0 µM in the Eurofins Kinase panel; settings: Compound concentration 10.0 uM

## O=c1n(Cc2cncn2-c2cccc(Cl)c2)nc(-c2ccc(Cl)cc2)n1C[C@H](O)C(F)(F)F
[1]
  inhibition: 8.45%
[2]
  inhibition: -2.95%
[3]
  inhibition: 4.45%
[4]
  inhibition: 8.99%
[5]
  inhibition: -6.37%
[6]
  inhibition: -3.35%
[7]
  inhibition: 9.43%
[8]
  inhibition: -2.95%
[9]
  inhibition: -1.29%
[10]
  inhibition: 5.56%
[11]
  inhibition: -4.95%
[12]
  inhibition: 2.94%
[13]
  inhibition: -5.66%
[14]
  inhibition: 1.99%
[15]
  inhibition: 3.43%
[16]
  inhibition: 0.92%
[17]
  inhibition: -3%
[18]
  inhibition: 0.23%
Vasopressin V1b receptor
  Ki: > 10 µM (not active)
[19]
  inhibition: 4.89%
[20]
  inhibition: -6.43%
[21]
  inhibition: 1.71%
[22]
  inhibition: -8.48%
[23]
  inhibition: 2.13%
[24]
  inhibition: -8.29%
[25]
  inhibition: -8.53%
[26]
  inhibition: 2.85%
[27]
  inhibition: -9.4%
[28]
  inhibition: -2.08%
[29]
  inhibition: 2%
[30]
  inhibition: -1.84%
[31]
  inhibition: 27.5%
[32]
  inhibition: 8.3%

## C[C@H](O)c1nc(Cn2nc(-c3ccc(Cl)cc3)n(C[C@H](O)C(F)(F)F)c2=O)nn1-c1cccc(Cl)c1 [PECAVAPTAN]
[1]
  inhibition: 6.1%
[2]
  inhibition: 1.11%
[3]
  inhibition: 1.26%
[4]
  inhibition: 2.69%
[5]
  inhibition: -4.1%
[6]
  inhibition: 8.06%
[7]
  inhibition: 7.88%
[8]
  inhibition: -4.67%
[9]
  inhibition: 3.56%
[10]
  inhibition: -1.46%
[11]
  inhibition: -2.43%
[12]
  inhibition: 7.71%
[13]
  inhibition: -1.83%
[14]
  inhibition: 3.11%
[15]
  inhibition: -0.04%
[16]
  inhibition: 7.3%
[17]
  inhibition: 18%
[18]
  inhibition: -0.37%
Vasopressin V1b receptor
  Ki: > 10 µM (not active)
[19]
  inhibition: -2.97%
[20]
  inhibition: -7.72%
[21]
  inhibition: 1.59%
[22]
  inhibition: -5.4%
[23]
  inhibition: -6.69%
[24]
  inhibition: -3.85%
[25]
  inhibition: -9.34%
[26]
  inhibition: -7.44%
[27]
  inhibition: -3.97%
[28]
  inhibition: -8.61%
[29]
  inhibition: 4%
[30]
  inhibition: 6.82%
[31]
  inhibition: 11.6%
[32]
  inhibition: 10.3%
